From patent US9845457B2, “Maintenance of genomic stability in cultured stem cells” (Cedars-Sinai Medical Center, priority 2010, dated 2017)

Key:
human CDCs = format: cell-based
Procedure: CDCs were expanded in conventional conditions under 20% O2 as described above. Twice-passaged CDCs and ES cells were used in these Examples. Cells were seeded in 96-well plates coated with 20 μg/ml fibronectin. […] After 24 hours of culture, cells were fixed, permeabilized and stained with rabbit polyclonal antibody against γ-H2AX (phosphor 5139, Abeam Inc.). After being washed, the cells were stained with a PE-conjugated secondary antibody and 4,6-diamidino-2-phenylindole (DAPI). Quantification of cells positive for γ-H2AX foci was performed by fluorescence microscopy (×40 magnification). Briefly, at least 5 images were captured from each culture condition from randomly-selected fields using Q-imaging (RETIGA EXi FAST, Canada) with the same exposure time. Cells with γ-H2AX foci in the nuclei were counted by a single observer blinded to treatment regimen, and the percentage of cells with γ-H2AX foci in each culture condition was used for statistical analysis.

[1] = test system: ATR, Rad50, Rad51, Chk1, Chk2; experiment: Western blotting of other DNA repair factors after 24 hours short-term exposure; format: cell-based, human; settings: 20% O2, high concentrations
Procedure: To examine the protein levels of ATM and other DNA repair-related factors, total protein was purified from twice-passaged CDCs cultured under the abovementioned four different conditions, using well-established laboratory techniques. Briefly, harvested cells were homogenized in a lysis buffer containing a protease inhibitor mixture (Roche Applied Science) on ice. After centrifugation at 15,000 rpm for 10 min, the supernatant was collected for experiments. The equivalent of 30 μg of total protein was loaded onto 5% or 10% SDS-PAGE gels, and then transferred to PVDF membranes. […] Quantitation for blots was done by Quantity One software, and expressions were normalized by β-actin.
Twice-passaged cells were seeded in 6-well plates coated with 20 μg/ml fibronectin. […] The expression of ATM and other DNA repair-related factors was assessed by Western blotting as described above.

[2] = test system: human cardiosphere-derived cells; experiment: Intracellular ROS levels (DCF fluorescence) after 24 hours short-term exposure; format: cell-based; settings: 20% O2, antioxidant A 100-1,000,000-fold dilution, B 0.1-1000 μM, catalase 0.1-1000 units/ml, H2O2 0.1-1000 μM
Procedure: To assay intracellular ROS levels (ROS levels), twice-passaged CDCs were seeded in 6- or 96-well plates coated with 20 μg/ml fibronectin, and continuously cultured under the abovementioned four different conditions. At about 90% confluence, cells were incubated with 10 μM 2′,7′-dichlorodihydrofluorescein diacetate (DCFH-DA) (Invitrogen) for 60 min to allow DCFH-DA to diffuse into cells. The DCF fluorescence intensity in cells cultured in 96-well plates is directly determined using SpectraMax® M5 (Molecular Devices Corp.) with an excitation wavelength of 495 nm and an emission wavelength of 520 nm. Cells cultured in 6-well plates were trypsin-treated and fixed. The DCF fluorescence intensity in cells was analyzed using a FACS Calibur flow cytometer with CellQuest software (BD Biosciences).
Twice-passaged cells were seeded in 6- or 96-well plates coated with 20 μg/ml fibronectin. […] After 24 hours of culture, the DCF fluorescence intensity in cells was measured using the same methods as disclosed above.
CDCs were initially maintained in traditional 5% CO2/20% O2 culture condition and then seeded into 96-well plates and cultured for 24 hours under experimental conditions. […] Dev. for six separate experiments using different twice-passaged CDCs. (a.u.: arbitrary units. * p<0.01, †p<0.05 vs. the baseline levels, represented by “0” on the x-axis). […]

Row | Compound | percentage of CDCs with γ-H2AX foci (DNA damage), dose response (human CDCs) | expression levels of ATR, Rad50, Rad51, Chk-1, and Chk-2 [1] | ROS levels, dose response [2]
1 | OO [Antioxidant H2O2, hydrogen peroxide] | increased DNA damage dose-dependently | increased | increased
2 | catalase | A similar result | slightly or obviously decreased | decreased
